Consider two compounds from patent US9469854B2, “Pharmaceutical composition for treating liver diseases” (Academia Sinica, priority 2014, dated 2016).

For data set [1], the system named is miR-21-3p. The data set is described as follows: qRT-PCR microRNA assay in primary human hepatocytes. The format is cell-based. To be noted: PHHs, 40 μM berberine, 2 h. The protocol:
The primary human hepatocytes from Caucasian donors were purchased from Invitrogen and cultured following the manufacturer's instructions. The hepatocytes were thawed and transferred into cryopreserved hepatocytes recovery medium (CM7000, Invitrogen), centrifuging at room temperature, 100×g for 10 min. Then, the hepatocytes were diluted to seeding density with plating medium (CM3000, Invitrogen) and added into collagen I-coated plates (Invitrogen). These plates were incubated at 37° C. for 4-6 hours under 5% CO2 for forming a monolayer. Then, plating medium was replaced by overlay incubation medium (CM4000 and 0.35 mg/mL Geltrex™ Matrix, Invitrogen), and the incubation medium was replaced daily. In the following examples, hepatocytes form 3 to 4 donors were used for experiments. A 50 mM stock solution of berberine chloride (Sigma-Aldrich) was prepared in dimethyl sulfoxide (DMSO). Cells were treated with 40 μM of berberine chloride or 0.08% DMSO as the control. For induction of lipid droplets formation in cultured cells, 200 μM of oleic acid (Sigma-Aldrich) was added into the culture medium for 24 h. Total RNA was extracted using a TRIZOL reagent (Invitrogen) according to the manufacturer's protocol. The total RNA quantity was measured using a NanoDrop ND-1000 spectrophotometer (Nanodrop Technologies). […]

Data set [2] concerns hsa-miR-21-3p. The data set is described as follows: miRNA microarray profiling of berberine-treated primary human hepatocytes. The format is cell-based. To be noted: PHHs from 3 donors, 40 μM berberine, 2 h.
Protocol: A 50 mM stock solution of berberine chloride (Sigma-Aldrich) was prepared in dimethyl sulfoxide (DMSO). […]
The miRNA profiling was performed using an Agilent human miRNA Microarray R14 V2 containing 866 human miRNAs. […] Microarrays were scanned following the Agilent microarray scanner protocol, and image analysis and quantification were performed using the Agilent Feature Extraction software (Agilent Technologies). […]
Data set [3] has as its system 3′ UTR sequence of DGAT2. Put plainly: Reporter examination of miR-21-3p and DGAT2 3′ UTR (technology similar to Example 6). The format is cell-based, human. The protocol:
The HEK-293T and HepG2 cells were seeded at a density of 5×10^4 cells per well in a 24-well culture plate the day before transfection. The HEK-293T and HepG2 cells were tri-transfected with (1) any one of the above-mentioned pMIR-REPORT-3′ UTR construction (300 ng), (2) the control Renilla luciferase reporter plasmid pRL-TK from Promega (10 ng), and (3) 50 nM of hsa-miR-21-3p mimic or negative-control mimic by using the Lipofectamine 2000 transfection reagent (Invitrogen) according to the manufacturer's instructions. Luciferase assays were performed after transfection for 48 h by using the Dual Luciferase reporter assay kit (Promega) and the Paradigm detection platform (Beckman) according to the manufacturer's protocol. The firefly luciferase activity was normalized relative to the Renilla luciferase activity.

Data set [4] relates to HepG2 cells. Put plainly: BrdU incorporation cell proliferation assay. The format is cell-based, human. The settings on record: HepG2, mimic 24 h plus additional 24 h BrdU, vs NC mimic. The procedure:
The HepG2 cells were seeded at a density of 1×10^4 cells per well in a 96-well culture plate the day before transfection. After transfection with 50 nM of hsa-miR-21-3p mimic or the negative-control mimic for 24 h, the cultured media were refreshed with complete media containing the BrdU reagent, and incubated for an additional 24 hour for BrdU incorporation. The BrdU incorporation was quantified by using the BrdU cell proliferation colorimetric ELISA kit (abcam) according to the manufacturer's protocol and detected using the MRX II microplate reader (DYNEX).

Data set [5] relates to HepG2 cells. The data set is described as follows: Trypan blue dye exclusion assay (viable cell number). The format is cell-based, human. To be noted: HepG2, 50 nM mimic transfection 48 h vs NC mimic. The procedure: FIG. 6A represents the number of viable HepG2 cells transfected with 50 nM of miR-21-3p mimic or negative-control (NC) mimic for 48 h, which is quantified using trypan blue dye exclusion assay. The data are represented as the mean±standard deviation for 3 independent experiments. The asterisk mark “*” indicates a significant difference with P<0.05.
(§1) The HepG2 cells were transfected at a density of 5×10^4 cells per well in a 24-well culture plates with either 50 nM of hsa-miR-21-3p (miR-21-3p mimic) or negative-control mimic (NC mimic), or with either 100 nM of hsa-miR-21-3p inhibitor (miR-21-3p inhibitor) or negative-control inhibitor (NC inhibitor) by using the DharmaFECT 4 transfection reagent (Thermo Scientific Dharmacon) according to the manufacturer's instructions. Cells were incubated for 24 h or 48 h with a microRNA mimic or inhibitor prior to RNA purification for gene expression analysis, and were incubated for 72 h for protein expression analysis.

For data set [6], the system named is MAT2B. The data set is described as follows: Western blot protein expression in HepG2 cells. The format is cell-based, human. The settings on record: HepG2, mimic transfection 72 h. The procedure:
(§2) The human HepG2 cells and HEK 293T cells used in the following examples were originally obtained from the American Tissue Culture Collection (ATCC, USA). The human HCC HepG2 cell line was cultured in Minimum Essential Medium Eagle (Sigma) supplemented with 10% fetal bovine serum (FBS) (Invitrogen), 2.2 g/L of sodium bicarbonate (Sigma), 0.1 mM of non-essential amino acids (Caisson), 1 mM of sodium pyruvate (Invitrogen), and 10 of ml/L penicillin-streptomycin-amphotericin solution (Biological Industries). Human HEK-293T cells were maintained in high-glucose Dulbecco's modified eagle medium (Invitrogen) supplemented with 10% FBS and 3.7 g/L of sodium bicarbonate (Sigma). Both cell lines were cultured at 37° C. and 5% CO2.
as §1
(§3) Total cell lysates were prepared using a lysis buffer (7 M of urea, 4% CHAPS, 2 M of thiourea, 40 mM of Tris, 65 mM of dithioerythritol). Protein samples were separated using 12.5% SDS-PAGE and then transferred to PVDF membranes. The following primary antibodies were used: rabbit polyclone anti-MAT1A (1:800, GeneTex), anti-MAT2A (1:1000, GeneTex), anti-MAT2B (1:1000, GeneTex), anti-ACACB (1:1000, Sigma), anti-DGAT2 (1:1000, GeneTex) and anti-GAPDH (1:3000, GeneTex) and mouse monoclone anti-ACACA (1:1000, Millipore). The goat polyclonal anti-rabbit or anti-mouse IgG antibody conjugated with HRP (1:5000, abcam) was used as the secondary antibody. The bands were imaged using the LAS-4000 mini luminescent image analyzer (Fujifilm). The quantification of western blot analysis was achieved by using Image J software. The protein expression levels were normalized to the GAPDH levels.
In general terms: Immunoblotting shows a protein as a band on a membrane.

Data set [7] has as its system MAT2A. Put plainly: Western blot protein expression in HepG2 cells. The settings on record: HepG2, mimic transfection 72 h. The format is cell-based, human. The procedure: as §2, §1, §3
The subject of data set [8] is ACACB. The data set is described as follows: Western blot protein expression in HepG2 cells. The format is cell-based, human. The settings on record: HepG2, mimic transfection, 72 h. The protocol: as §2, §1, §3
Data set [9] concerns MAT1A. Put plainly: Western blot protein expression in HepG2 cells. The format is cell-based, human. The settings on record: HepG2, mimic transfection 72 h. The procedure: as §2, §1, §3
For data set [10], the system named is DGAT2. Put plainly: Western blot protein expression in HepG2 cells. The format is cell-based, human. To be noted: HepG2, miR-21-3p over-expressed, 72 h. The protocol: as §2, §1, §3
The test system of data set [11] is ACACA. The data set is described as follows: Western blot protein expression in HepG2 cells. The format is cell-based, human. To be noted: HepG2, mimic transfection, 72 h. The protocol:
as §2, §1, §3

Take `COc1ccc2cc3[n+](cc2c1OC)CCc1cc2c(cc1-3)OCO2` [berberine]: in data set [1], the “miR-21-3p expression (qRT-PCR)” value is “up-regulation”. In addition, the “hsa-miR-21-3p expression increase (miRNA microarray), mean” value in data set [2] is 3.36 fold.
In the case of “hsa-miR-21-3p (CAACACCAGUCGAUGGGCUGU; listed as RNA, chemistry not given here) [miR-21-3p mimic]”, the “suppression of DGAT2 expression by pairing with 3′ UTR” value in data set [3] was found to be 1.4 fold. Also, in data set [4], the “inhibition of cellular proliferation (BrdU incorporation)” value amounted to 1.7 fold. Moreover, the viable cell numbers result in [5] was “reduced the viable cell numbers”. Moreover, the “MAT2B protein expression decrease” value in data set [6] was 3.4 fold. Moreover, in data set [7], the “MAT2A protein expression decrease” value is recorded as 2.6 fold. Besides, in data set [8], the “decrease in protein expression of ACACB” value turned out to be 1.6 fold. Also, the “MAT1A protein expression increase” value in [9] was determined as 1.7 fold. Further, in data set [10], the “decrease in protein level of DGAT2” value is 3.3 fold. In addition, in data set [11], the “decrease in protein expression of ACACA” value came to 2.3 fold.
